Key:
[1] = target: crude KPC-3 enzyme extract (UniProt Q9F663, H272Y, species not given); assay: β-Lactamase inhibitory assay with CENTA substrate; type: biochemical; conditions: also headed KPC2
Excerpt: (§1) The Compound-1 was subjected to β-lactamase inhibitory assay to determine IC50 and to compare that with the comparator BLI agents as described elsewhere (Bebrone et. al., Antimicrob. Agents. Chemother, 2001, 45(6): 1868-1871; Jamieson et. al, Antimicrob. Agents. Chemother, 2003, 47(5): 1652-1657). Briefly, enzyme extracts from KPC-2 producing and KPC-3 expressing bacterial gram negative strains were used to study the β-lactamase inhibitory activity and determination of IC50 using CENTA as the substrate for β-lactamase.

[2] = target: T1, crude KPC-2 enzyme extract (Klebsiella pneumoniae, UniProt Q9F663); assay: β-Lactamase inhibitory assay with CENTA substrate; type: biochemical
T1 construct: enzyme extracts from KPC-2 producing and KPC-3 expressing bacterial gram negative strains were used; endogenous in cells; host or cells: KPC-2 producing gram-negative strain
T1 sequence (Q9F663 25-293 limits assumed): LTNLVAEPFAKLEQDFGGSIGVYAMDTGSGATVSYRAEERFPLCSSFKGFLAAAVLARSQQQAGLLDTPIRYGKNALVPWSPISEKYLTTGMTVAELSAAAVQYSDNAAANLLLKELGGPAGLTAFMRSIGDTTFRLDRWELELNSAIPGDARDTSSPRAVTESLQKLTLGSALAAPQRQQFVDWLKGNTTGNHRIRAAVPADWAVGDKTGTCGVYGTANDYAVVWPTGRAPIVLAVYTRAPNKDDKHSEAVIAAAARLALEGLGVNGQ
Excerpt: as §1

[3] = tested on: P. mirabilis BAA-663 (TEM-89); assay: MIC of Piperacillin with inhibitor, ESBL isolates; type: cell-based
[4] = tested on: K. pneumoniae UMM3 (KPC2); assay: Synergistic broth micro-dilution MIC; type: cell-based, Klebsiella pneumoniae; conditions: BLI at 4 μg/mL
[5] = tested on: K. pneumoniae NCTC 13438 (KPC3); assay: Synergistic broth micro-dilution MIC; type: cell-based, Klebsiella pneumoniae; conditions: BLI at 4 μg/mL
[6] = tested on: KPC-2 producing K. pneumoniae (ATCC BAA-1705); assay: Synergistic broth micro-dilution MIC (checkerboard); type: cell-based, Klebsiella pneumoniae; conditions: ATCC BAA-1705
E. coli BAA-198 (TEM-26) = assay: MIC of Piperacillin with inhibitor, ESBL isolates; type: cell-based, Escherichia coli

**Q.** Which results are given for `C[C@]1(Cn2ccnn2)[C@H](C(=O)O)N2C(=O)C[C@H]2S1(=O)=O` [Tazobactam]?
**A.** IC50 [1]: 71 µM; IC50 [2]: 980 µM; MIC of Piperacillin with inhibitor ([3]; inhibitor at 1 μg/mL): 8 µg/mL; MIC of Piperacillin with inhibitor ([3]; inhibitor at 2 μg/mL): 8 µg/mL; MIC of Piperacillin with inhibitor ([3]; inhibitor at 4 μg/mL): 4 µg/mL; MIC of Imipenem in combination with BLI [4]: 4 µg/mL; MIC of Imipenem in combination with BLI [5]: 64 µg/mL; MIC of Cefquinome in combination with BLI ([6]; BLI at 1 μg/mL): >64 µg/mL; MIC of Ceftiofur in combination with BLI ([6]; BLI at 1 μg/mL): >64 µg/mL; MIC of Cefepime in combination with BLI ([6]; BLI at 2 μg/mL): 64 µg/mL; MIC of Cefotaxime in combination with BLI ([6]; BLI at 2 μg/mL): ≥64 µg/mL; MIC of Cefquinome in combination with BLI ([6]; BLI at 2 μg/mL): >64 µg/mL; MIC of Ceftazidime in combination with BLI ([6]; BLI at 2 μg/mL): >64 µg/mL; MIC of Ceftiofur in combination with BLI ([6]; BLI at 2 μg/mL): >64 µg/mL; MIC of Ceftobiprole in combination with BLI ([6]; BLI at 2 μg/mL): >64 µg/mL; MIC of Imipenem in combination with BLI ([6]; BLI at 2 μg/mL): 16 µg/mL; MIC of Meropenem in combination with BLI ([6]; BLI at 2 μg/mL): 32 µg/mL; MIC of Aztreonam in combination with BLI ([6]; BLI at 4 μg/mL): >64 µg/mL; MIC of Cefadroxil in combination with BLI ([6]; BLI at 4 μg/mL): >64 µg/mL; MIC of Cefalonium in combination with BLI ([6]; BLI at 4 μg/mL): >64 µg/mL; MIC of Cefepime in combination with BLI ([6]; BLI at 4 μg/mL): 64 µg/mL; MIC of Cefotaxime in combination with BLI ([6]; BLI at 4 μg/mL): 32 to 64 µg/mL; MIC of Cefquinome in combination with BLI ([6]; BLI at 4 μg/mL): >64 µg/mL; MIC of Ceftazidime in combination with BLI ([6]; BLI at 4 μg/mL): >64 µg/mL; MIC of Ceftiofur in combination with BLI ([6]; BLI at 4 μg/mL): >64 µg/mL; MIC of Ceftobiprole in combination with BLI ([6]; BLI at 4 μg/mL): >64 µg/mL; MIC of Ertapenem in combination with BLI ([6]; BLI at 4 μg/mL): >64 µg/mL; MIC of Faropenem in combination with BLI ([6]; BLI at 4 μg/mL): >64 µg/mL; MIC of Imipenem in combination with BLI ([6]; BLI at 4 μg/mL): 16 µg/mL; MIC of Meropenem in combination with BLI ([6]; BLI at 4 μg/mL): 32 µg/mL; MIC of Cefepime in combination with BLI ([6]; BLI at 8 μg/mL): 32 µg/mL; MIC of Cefotaxime in combination with BLI ([6]; BLI at 8 μg/mL): 32 µg/mL; MIC of Cefquinome in combination with BLI ([6]; BLI at 8 μg/mL): 64 µg/mL; MIC of Ceftazidime in combination with BLI ([6]; BLI at 8 μg/mL): >64 µg/mL; MIC of Ceftiofur in combination with BLI ([6]; BLI at 8 μg/mL): >64 µg/mL; MIC of Ceftobiprole in combination with BLI ([6]; BLI at 8 μg/mL): >64 µg/mL; MIC of Ertapenem in combination with BLI ([6]; BLI at 8 μg/mL): >64 µg/mL; MIC of Faropenem in combination with BLI ([6]; BLI at 8 μg/mL): >64 µg/mL; MIC of Imipenem in combination with BLI ([6]; BLI at 8 μg/mL): 8 to 16 µg/mL; MIC of Meropenem in combination with BLI ([6]; BLI at 8 μg/mL): 16 to 32 µg/mL; MIC of Aztreonam in combination with BLI ([6]; BLI at 16 μg/mL): >64 µg/mL; MIC of Cefadroxil in combination with BLI ([6]; BLI at 16 μg/mL): >64 µg/mL; MIC of Cefalonium in combination with BLI ([6]; BLI at 16 μg/mL): >64 µg/mL; MIC of Cefepime in combination with BLI ([6]; BLI at 16 μg/mL): 32 µg/mL; MIC of Cefotaxime in combination with BLI ([6]; BLI at 16 μg/mL): 32 µg/mL; MIC of Cefquinome in combination with BLI ([6]; BLI at 16 μg/mL): 64 µg/mL; MIC of Ceftazidime in combination with BLI ([6]; BLI at 16 μg/mL): >64 µg/mL; MIC of Ceftiofur in combination with BLI ([6]; BLI at 16 μg/mL): >64 µg/mL; MIC of Ceftobiprole in combination with BLI ([6]; BLI at 16 μg/mL): >64 µg/mL; MIC of Ertapenem in combination with BLI ([6]; BLI at 16 μg/mL): 64 µg/mL; MIC of Faropenem in combination with BLI ([6]; BLI at 16 μg/mL): >64 µg/mL; MIC of Imipenem in combination with BLI ([6]; BLI at 16 μg/mL): 8 µg/mL; MIC of Meropenem in combination with BLI ([6]; BLI at 16 μg/mL): 8 to 16 µg/mL; MIC of Cefquinome in combination with BLI ([6]; BLI at 32 μg/mL): 64 µg/mL; MIC of Ceftiofur in combination with BLI ([6]; BLI at 32 μg/mL): 64 µg/mL; MIC of Aztreonam in combination with BLI ([6]; BLI at 64 μg/mL): >64 µg/mL; MIC of Cefadroxil in combination with BLI ([6]; BLI at 64 μg/mL): >64 µg/mL; MIC of Cefalonium in combination with BLI ([6]; BLI at 64 μg/mL): >64 µg/mL; MIC of Cefepime in combination with BLI ([6]; BLI at 64 μg/mL): 32 µg/mL; MIC of Cefotaxime in combination with BLI ([6]; BLI at 64 μg/mL): 32 µg/mL; MIC of Cefquinome in combination with BLI ([6]; BLI at 64 μg/mL): 64 µg/mL; MIC of Ceftazidime in combination with BLI ([6]; BLI at 64 μg/mL): 64 µg/mL; MIC of Ceftiofur in combination with BLI ([6]; BLI at 64 μg/mL): 64 µg/mL; MIC of Ceftobiprole in combination with BLI ([6]; BLI at 64 μg/mL): >64 µg/mL; MIC of Ertapenem in combination with BLI ([6]; BLI at 64 μg/mL): 32 µg/mL; MIC of Faropenem in combination with BLI ([6]; BLI at 64 μg/mL): >64 µg/mL; MIC of Imipenem in combination with BLI ([6]; BLI at 64 μg/mL): 4 to 8 µg/mL; MIC of Meropenem in combination with BLI ([6]; BLI at 64 μg/mL): 4 µg/mL; MIC of Piperacillin with inhibitor (E. coli BAA-198 (TEM-26); inhibitor at 1 μg/mL): 4 µg/mL; MIC of Piperacillin with inhibitor (E. coli BAA-198 (TEM-26); inhibitor at 2 μg/mL): 4 µg/mL; MIC of Piperacillin with inhibitor (E. coli BAA-198 (TEM-26); inhibitor at 4 μg/mL): 4 µg/mL

Reference: US10201532B2, “Compounds and their use” (ALLECRA THERAPEUTICS GMBH, priority 2010, dated 2019)
